Laboratory results from PubChem BioAssay (NCI).
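Compound exposure: 48 hours, 5 concentrations, 96-well plates. Here, GI50 denotes the concentration required for 50% inhibition of growth. At the TGI there is no net growth.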

Experiments:
Test in all cases: NCI-60 cell line screen, 48 h
[1] = tested on: COLO 205 colon
[2] = tested on: SNB-19 CNS
[3] = tested on: HS 578T breast
[4] = tested on: HCT-15 colon
[5] = tested on: OVCAR-8 ovarian
[6] = tested on: OVCAR-5 ovarian
[7] = tested on: HL-60(TB) leukemia
[8] = tested on: NCI-H226 lung
[9] = tested on: SW-620 colon
[10] = tested on: NCI-H522 lung

Compound	TGI [1] [µM]	TGI [2] [µM]	TGI [3] [µM]	TGI [4] [µM]	TGI [5] [µM]	TGI [6] [µM]	TGI [7] [µM]	TGI [8] [µM]	TGI [9] [µM]	TGI [10] [µM]	GI50 [1] [µM]	GI50 [2] [µM]	GI50 [3] [µM]	GI50 [4] [µM]	GI50 [5] [µM]	GI50 [6] [µM]	GI50 [7] [µM]	GI50 [8] [µM]	GI50 [9] [µM]	GI50 [10] [µM]
O=c1oc2c(Br)c(O)c(Br)cc2c2ccccc12	> 100	93.4	66.2	42.9	> 100	> 100	52.3	80.5	> 100	51.3	–	–	–	–	–	–	–	–	–	–
COc1cc2c3c(n(CCCN=[N+]=[N-])c(=O)c2cc1OC)-c1ccc(N)cc1C3=O	1.23	–	> 24.9	2.46	1.9	1.33	1.02	1.16	3.69	0.983	0.4	0.125	1.53	0.378	0.436	0.633	0.102	0.249	0.203	0.133
CCc1ccc(/C(C#N)=C/C=C/c2ccccc2)cc1	5.91	> 100	> 100	> 83.9	> 100	> 100	> 62.9	> 100	> 100	14.7	1.83	6.88	5.25	0.897	5	7.06	2.54	17.2	1.22	2.04
O=C(/C=C\c1cccc([N+](=O)[O-])c1)c1ccccc1	4.12	21	61	5.95	17	18.7	> 100	45.9	5.82	3.93	2.04	6.81	5.97	2.16	3.66	3.92	2.91	18.7	1.81	1.46
CN(C)c1cc2c(Nc3ccc4nc(Cc5ccccc5)[nH]c4c3)ncnc2cn1	> 25	> 25	> 25	> 25	> 25	> 25	> 25	> 25	> 25	> 25	> 25	> 25	> 17.6	> 16.6	> 17.4	16.6	> 25	> 18	> 21.5	10.9
O=C(c1ccc(F)c(F)c1Nc1ccc(I)cc1F)N1CC(O)([C@H]2CCCCN2)C1	4.1	22.8	33.7	19.3	26.9	15.5	5.71	22.8	15	22.9	0.0735	8.08	9.74	4.81	12	0.914	0.173	4.8	0.34	8.01
